The subject of assay [1] is human keratinocytes cell line NCTC2544. The assay can be described thus: MTT assay with induced oxidative stress (1 mM H2O2). The class given is cell-based. The following applies: NCTC-2544, 0.5 μM compound, 16 h pre-treatment, then 1 mM H2O2 for 90 minutes, read-out: % viability (cell viability compared to not stressed control cells). The text has this: In the intracellular environment, said formazan forms insoluble crystals to which the membranes are substantially impermeable: the molecule is therefore allowed to entry the cell, but not to exit it, if the molecule is correctly metabolized, i.e. if the electron transport chains are still metabolically active (that is equipped with an active reducing power).
This assay measures the viability of cells subjected to oxidative stress, and is therefore interpreted not only as an indicator of the antioxidant activity but also as an indicator of protection from oxidative stress and enhancement of cellular antioxidant defenses, in general terms being the test non-specific.
With the transformation of MTT, a change in color of the molecule from yellow to dark blue-violet is seen; therefore, to estimate the number of active mitochondria and, therefore, the number of viable cells in the sample, a colorimetric assay with a spectrophotometer read-out is used.
The protocol described below is used as a screening tool for the activity of the compounds of the invention object of the study, after induction of oxidative stress in the human keratinocytes cell line NCTC2544 through application of 1 mM hydrogen peroxide, according to a specific bibliographic reference (Rajapakse et al., 2004). The assay was conducted according to the method described by Coda and collaborators, with some modifications
The NCTC 2544 human keratinocytes were seeded in a 96-well plate at a density of 5*10^4 cells/well and incubated at 37° C. and 5% CO2, until reaching approximately 80% confluence.
The cells were then pretreated for 16 hours with the compounds of the invention to be tested in different concentrations, and with α-tocopherol, tested at the […] and 1 mM concentrations, as a reference. Cells treated with 1 mM H2O2 were used as negative control; however, cells maintained in culture in complete medium, served as the positive control.
At the end of the 16 hours of pre-treatment, the cells were washed with 1×PBS and incubated for 90 minutes with a 1 mM H2O2 solution (Sigma-Aldrich, St. Louis, Mo., USA) in serum-free medium at 37° C. and 5% CO2, in the dark.
Once the oxidative stress induction phase was completed, the evaluation of cell viability of the various samples was carried out, according to the method previously described (MTT assay).
The data were expressed as the percentage of cell viability compared to not stressed control cells (ctr), according to the following formula: % cell viability/ctr=(Abs sample/Abs ctr)*100
All analyzes were performed at least twice in duplicate.
In general terms: Formazan colour is commonly taken as a measure of viable cells.

In assay [2] the test system is TNF-α gene expression in NCTC 2544 human keratinocytes. The assay can be described thus: In vitro inflammation test: LPS-induced TNF-α gene expression by qRT-PCR. The class given is cell-based. The following applies: 5 μM compound, LPS 5 μg/ml, 24 h, NCTC 2544 keratinocytes. The method, then: A immortalized line of NCTC 2544 human keratinocytes (Perry V. P. et al., 1957), kept in culture in sterile flasks ([…]), incubated at 37° C. in a humid atmosphere with 5% CO2 in MEM (Minimum Essential Medium) culture medium added with 10% fetal bovine serum (FBS), 2 mM glutamine, 1% non-essential amino acids, in the presence of 1% of penicillin and streptomycin, is used.
When the cells (NCTC 2544 human keratinocytes) reached approximately 80% confluence, they were detached with trypsin/EDTA and seeded at a density of 1×10^6 cells/ml in 12-well plates, and then incubated at 37° C., 5% CO2 (24 h). […]
The activity of the compounds under study on TNF-α gene expression was assessed by relative quantitative RT-PCR (quantitative reverse transcription-polymerase chain reaction-qRT-PCR). […]
With the use of a spectrophotometer (Jenway UV/VIS MOD: 6715, BS-6715B0), the μg/mL concentrations of the total RNA extracted were calculated, at a wavelength of 260 nm.
Finally, the RNA integrity (2 μg/mL) was evaluated by means of an electrophoretic run on 1% agarose gel.
The RNA extracted and quantified was diluted at a concentration of 2 μg/mL and reverse-transcribed into cDNA. […]

Counter-ions that a name gives are not always drawn.

As to `Oc1ccc(C=Cc2cc(O)cc(O)c2)cc1` [resveratrol], the viability (usually a read-out of living cells in per cent, often relative to untreated cells) at 0.5 µM in assay [1] was ~75%. The “anti-inflammatory activity (TNF-α assay, FIG. 2)” value in assay [2] was “proves not to have”.
Regarding `C/C=C/C=C/C=C/C(=O)O` [octatrienoic acid arginine salt, Octatrienoic acid arginine salt], the viability at 0.5 µM in assay [1] was determined as 91.5%.
Still for that read-out and setting: next, `C/C=C/C=C/C=C/C(=O)Oc1cc(/C=C/c2ccc(O)cc2)cc(OC(=O)/C=C/C=C/C=C/C)c1` [resveratrol di-octatrienoate, Resveratrol 3,5-di-octatrienoate]: 120%; `CC=CC=CC=CC(=O)O` [octatrienoic acid, 2,4,6-octatrienoic acid]: ~75%.

Values taken from patent publication US9738682B2, “Compounds with a combined antioxidant activity against free radicals together with an anti-inflammatory action, and pharmaceutical and cosmetic compositions containing them for the treatment of skin and hair” (GIULIANI S.P.A., priority 2014, dated 2017).
